From patent US6362369B1, “Phthalic acid diamide derivatives fluorine-containing aniline compounds as starting material, agricultural and horticultural insecticides, and a method for application of the insecticides” (Nihon Nohyaku Co., Ltd., priority 1997, dated 2002)

Legend:
Assay type in all cases: in vivo
[1] = tested on: diamondback moth (Plutella xylostella); assay: Insecticidal effect on diamondback moth (Test Example 1); settings: for Insecticidal effect (Test Example 1), judged from mortality / Insecticidal effect, Test Example 1: diamondback moth; for Insecticidal effect (Test Example 1), judged from mortality: judged by the criterion of Test Example 1; for Insecticidal effect on diamondback moth (Test Example 1), judged grade: mortality judged according to the criterion shown in Test Example 1
Method in brief: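 Eggs laid by adult moths on Chinese cabbage seedlings, which were immersed in test solution, air-dried and kept at 25 °C. Hatched insects counted 6 days after immersion and mortality calculated, with effect graded by criterion; triplicate groups of 10 insects.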

[2] = tested on: common cutworm (Spodoptera Litura); assay: Insecticidal effect on common cutworm (Test Example 2); settings: 500 ppm, 25° C.; for Insecticidal effect (Test Example 2), judged from mortality / Insecticidal effect on common cutworm (Test Example 2), judged grade: cabbage leaf dip; for Insecticidal effect (Test Example 2), judged from mortality: 8 days after inoculation; for Insecticidal effect, Test Example 2: cabbage leaf immersed; for Insecticidal effect, Test Example 2 / Insecticidal effect on common cutworm (Test Example 2), judged grade: eight days after inoculation; for Insecticidal effect on common cutworm (Test Example 2), judged grade: second-instar larvae
Method in brief: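 2nd-instar larvae on air-dried treatment, closed dish, 25° C; dead/alive counted at day 8. Mortality calculated, graded by criterion. 3 × 10 insects.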

[3] = tested on: rice leafroller (Cnaphalocrocis medinalis); assay: Insecticidal effect on rice leafroller (Test Example 3); settings: 500 ppm, 25° C., humidity 70%; for Insecticidal effect (Test Example 3), judged from mortality / Insecticidal effect on rice leafroller (Test Example 3), judged grade: rice lamina dip; for Insecticidal effect (Test Example 3), judged from mortality: 4 days after inoculation; for Insecticidal effect, Test Example 3: rice lamina immersed; for Insecticidal effect, Test Example 3 / Insecticidal effect on rice leafroller (Test Example 3), judged grade: four days after inoculation; for Insecticidal effect on rice leafroller (Test Example 3), judged grade: third-instar larvae
Method in brief: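 Groups of 10 third-instar larvae, in triplicate, are placed on air-dried lamina resting on wet filter paper. Incubation runs four days at 25° C with 70% humidity before survivors and dead are tallied.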

[4] = second-instar larvae of common cutworm
[5] = third-instar larvae of rice leafroller
[6] = judged by the mortality criterion of Test Example 1
[7] = mortality judged by criterion of Test Example 1
[8] = common cutworm second-instar larvae
[9] = rice leafroller third-instar larvae

Row | Compound | Insecticidal effect, Test Example 1 [1, 6] | Insecticidal effect, Test Example 2 [2, 4] | Insecticidal effect, Test Example 3 [3, 5] | Insecticidal effect, Test Example 1 [1, 7] | Insecticidal effect, Test Example 2 [2, 8] | Insecticidal effect, Test Example 3 [3, 9] | other results
1 | Cc1cc(C(F)(F)C(F)(F)F)ccc1NC(=O)c1cccc(Cl)c1C(=O)N[C@H](C)CO [compound 1460] |  |  |  |  |  |  | Insecticidal effect (Test Example 1), judged from mortality [1]: A (100); Insecticidal effect (Test Example 2), judged from mortality [2, 4]: C (89-80); Insecticidal effect (Test Example 3), judged from mortality [3, 5]: A (100)
2 | Cc1cc(C(F)(F)C(F)(F)F)ccc1NC(=O)c1c(Cl)cccc1C(=O)NC(C)C [compound 223] | A (100) | A (100) | A (100) |  |  |  | 
3 | Cc1cc(Oc2ccc(C(F)(F)F)cn2)ccc1NC(=O)c1cccc(F)c1C(=O)NC(C)C [compound 523] |  |  |  |  |  |  | Insecticidal effect on diamondback moth (Test Example 1), judged grade [1]: A (100); Insecticidal effect on common cutworm (Test Example 2), judged grade [2]: A (100); Insecticidal effect on rice leafroller (Test Example 3), judged grade [3]: A (100)
4 | CC(C)NC(=O)c1c(C(=O)Nc2ccc([S+]([O-])C(F)(F)F)cc2)cccc1[N+](=O)[O-] (stereo not drawn) [compound 1000] |  |  |  | A (100) | D (79-50) | A (100) | 
5 | CCC(C)NC(=O)c1c(I)cccc1C(=O)Nc1ccc(C(F)(F)C(F)(F)F)cc1Cl (stereo not drawn) [compound 1473] |  |  |  |  |  |  | Insecticidal effect (Test Example 1), judged from mortality [1]: A (100); Insecticidal effect (Test Example 2), judged from mortality [2, 4]: A (100); Insecticidal effect (Test Example 3), judged from mortality [3, 5]: A (100)
6 | CC(C)NC(=O)c1c(C(=O)Nc2ccc(Cl)c(Cl)c2)cccc1[N+](=O)[O-] [compound 636] |  |  |  |  |  |  | Insecticidal effect on diamondback moth (Test Example 1), judged grade [1]: A (100); Insecticidal effect on common cutworm (Test Example 2), judged grade [2]: D (79-50); Insecticidal effect on rice leafroller (Test Example 3), judged grade [3]: A (100)
7 | CC(C)(C)NC(=O)c1c(I)cccc1C(=O)Nc1ccc(C(O)(C(F)(F)F)C(F)(F)F)cc1 [compound 1054] |  |  |  | A (100) | A (100) | A (100) | 
8 | Cc1cc(C(F)(F)C(F)(F)F)ccc1N(C)C(=O)c1cccc(I)c1C(=O)N(C)C(C)C [compound 1121] |  |  |  | A (100) | A (100) | A (100) | 
9 | Cc1cc(SC(F)(F)C(F)(F)F)ccc1NC(=O)c1cccc(F)c1C(=O)NC(C)C [compound 905] |  |  |  |  |  |  | Insecticidal effect on diamondback moth (Test Example 1), judged grade [1]: A (100); Insecticidal effect on common cutworm (Test Example 2), judged grade [2]: A (100); Insecticidal effect on rice leafroller (Test Example 3), judged grade [3]: A (100)
10 | Cc1cc(OC(F)(F)F)ccc1NC(=O)c1cccc(F)c1C(=O)NC(C)C [compound 510] |  |  |  |  |  |  | Insecticidal effect on diamondback moth (Test Example 1), judged grade [1]: A (100); Insecticidal effect on common cutworm (Test Example 2), judged grade [2]: B (99-90); Insecticidal effect on rice leafroller (Test Example 3), judged grade [3]: A (100)
11 | Cc1cc(OC(F)(F)C(F)(Cl)Cl)ccc1NC(=O)c1cccc([N+](=O)[O-])c1C(=O)NC(C)C [compound 715] |  |  |  |  |  |  | Insecticidal effect on diamondback moth (Test Example 1), judged grade [1]: A (100); Insecticidal effect on common cutworm (Test Example 2), judged grade [2]: A (100); Insecticidal effect on rice leafroller (Test Example 3), judged grade [3]: A (100)
12 | Cc1cccc(NC(=O)c2cccc(Cl)c2C(=O)NC(C)C)c1C [compound 117] | A (100) | A (100) | A (100) |  |  |  | 
13 | CC(C)(C)NC(=O)c1c(I)cccc1C(=O)Nc1ccc(S(=O)(=O)C(F)(F)F)cc1 [compound 1080] |  |  |  | A (100) | A (100) | A (100) | 
14 | Cc1cc(C(F)(F)C(F)(F)C(F)(F)F)ccc1NC(=O)c1ccccc1C(=O)NC(C)C [compound 56] | A (100) | A (100) | A (100) |  |  |  | 
15 | CC(C)(C)NC(=O)c1ccccc1C(=O)Nc1ccc(OC(F)(F)F)cc1 [compound 929] |  |  |  |  |  |  | Insecticidal effect on diamondback moth (Test Example 1), judged grade [1]: A (100); Insecticidal effect on common cutworm (Test Example 2), judged grade [2]: A (100); Insecticidal effect on rice leafroller (Test Example 3), judged grade [3]: A (100)
16 | CCN(CC)C(=O)c1c(I)cccc1C(=O)Nc1ccc(-c2ccc(F)cc2)cc1C [compound 1614] |  |  |  |  |  |  | Insecticidal effect (Test Example 1), judged from mortality [1]: A (100); Insecticidal effect (Test Example 2), judged from mortality [2, 4]: C (89-80); Insecticidal effect (Test Example 3), judged from mortality [3, 5]: A (100)
17 | Cc1cc(C(F)(F)C(F)(F)F)ccc1NC(=O)c1ccc(Cl)c(Cl)c1C(=O)NC(C)C [compound 1222, 3,4-dichloro-N^1-(4-pentafluoroethyl-2-methylphenyl)-N^2-isopropylphthalic acid diamide] |  |  |  | A (100) | A (100) | A (100) | 
18 | CCc1cc(C(F)(F)C(F)(F)F)ccc1NC(=O)c1cccc(Cl)c1C(=O)NC(C)(C)C [compound 1497] |  |  |  |  |  |  | Insecticidal effect (Test Example 1), judged from mortality [1]: A (100); Insecticidal effect (Test Example 2), judged from mortality [2, 4]: A (100); Insecticidal effect (Test Example 3), judged from mortality [3, 5]: A (100)

Row | Compound | Insecticidal effect, Test Example 1 [1, 6] | Insecticidal effect, Test Example 2 [2, 4] | Insecticidal effect, Test Example 3 [3, 5] | Insecticidal effect, Test Example 1 [1, 7] | Insecticidal effect, Test Example 2 [2, 8] | Insecticidal effect, Test Example 3 [3, 9] | other results
19 | Cc1c(NC(=O)c2cccc(Cl)c2C(=O)NC(C)C)cccc1OC(F)(F)C(F)Cl (stereo not drawn) [compound 142] | A (100) | A (100) | B (99-90) |  |  |  | 
20 | Cc1cc(OC(F)(F)C(Cl)(Cl)Cl)ccc1NC(=O)c1c(Cl)cccc1C(=O)NC(C)C [compound 222] | A (100) | B (99-90) | A (100) |  |  |  | 
21 | CSc1ccc(NC(=O)c2cccc(Br)c2C(=O)NC(C)C)c(C)c1 [compound 296] | A (100) | A (100) | A (100) |  |  |  | 
22 | CC(C)NC(=O)c1c(Cl)cccc1C(=O)Nc1ccc2c(c1)OC(F)(F)C(F)(F)O2 [compound 977] |  |  |  | A (100) | A (100) | A (100) | 
23 | CC(C)NC(=O)c1cccc(I)c1C(=O)Nc1ccc(SC(F)F)cc1 [compound 421] | A (100) | B (99-90) | A (100) |  |  |  | 
24 | COc1ccc(NC(=O)c2cccc(I)c2C(=O)NC(C)C)c(C)c1C [compound 378] | A (100) | D (79-50) | A (100) |  |  |  | 
25 | Cc1cc(OC(F)F)ccc1NC(=O)c1cccc(Cl)c1C(=O)NC(C)(C)C [compound 1019] |  |  |  | A (100) | A (100) | A (100) | 
26 | CC(C)NC(=O)c1c(Cl)cccc1C(=O)Nc1ccc(OC(F)(F)F)cc1Br [compound 136] | A (100) | A (100) | A (100) |  |  |  | 
27 | Cc1cc(OC(F)(F)C(F)F)ccc1NC(=O)c1cccc([N+](=O)[O-])c1C(=O)NC(C)C [compound 712] |  |  |  |  |  |  | Insecticidal effect on diamondback moth (Test Example 1), judged grade [1]: A (100); Insecticidal effect on common cutworm (Test Example 2), judged grade [2]: A (100); Insecticidal effect on rice leafroller (Test Example 3), judged grade [3]: A (100)
28 | Cc1cc(C(F)(F)C(F)(F)F)ccc1NC(=O)c1cccc(Cl)c1C(=O)N(C)Cc1ccccc1 [compound 1406] |  |  |  | A (100) | A (100) | A (100) | 
29 | Cc1c(Cl)cccc1NC(=O)c1ccccc1C(=O)NC(C)C [compound 49] | A (100) | A (100) | A (100) |  |  |  | 
30 | CCNC(=O)c1c(C(=O)Nc2cc(Cl)ccc2C)cccc1[N+](=O)[O-] [compound 10] | A (100) | D (79-50) | D (79-50) |  |  |  | 
31 | Cc1cc(C(F)(F)C(F)(F)C(F)(F)F)ccc1NC(=O)c1cccc(F)c1C(=O)NC(C)C [compound 496] |  |  |  |  |  |  | Insecticidal effect on diamondback moth (Test Example 1), judged grade [1]: A (100); Insecticidal effect on common cutworm (Test Example 2), judged grade [2]: A (100); Insecticidal effect on rice leafroller (Test Example 3), judged grade [3]: A (100)
32 | CC(C)NC(=O)c1c(I)cccc1C(=O)Nc1ccc(OC(F)(F)F)cc1Cl [compound 408] | A (100) | B (99-90) | A (100) |  |  |  | 
33 | CCc1cc(OC(F)(F)F)ccc1NC(=O)c1cccc(I)c1C(=O)NC(C)C [compound 1210] |  |  |  | A (100) | A (100) | A (100) | 
34 | Cc1cc(C#Cc2ccc(Cl)cc2Cl)ccc1NC(=O)c1cccc(Cl)c1C(=O)NC(C)C [compound 971] |  |  |  | A (100) | A (100) | A (100) | 
35 | CC(C)NC(=O)c1c(C(=O)Nc2ccc3c(c2)OC(F)(F)C(F)O3)cccc1[N+](=O)[O-] (stereo not drawn) [compound 1162] |  |  |  | A (100) | A (100) | A (100) | 
36 | Cc1cc(C(F)(F)C(F)(F)F)ccc1NC(=O)c1cccc(Cl)c1C(=O)NC(C)(C)C#Cc1ccc(Br)cn1 [compound 1649] |  |  |  |  |  |  | Insecticidal effect (Test Example 1), judged from mortality [1]: A (100); Insecticidal effect (Test Example 2), judged from mortality [2, 4]: A (100); Insecticidal effect (Test Example 3), judged from mortality [3, 5]: A (100)
